Series [1] concerns the target T1, Ephrin type-B receptor 4 (Homo sapiens) (UniProt P54760).
T1 sequence (whole entry): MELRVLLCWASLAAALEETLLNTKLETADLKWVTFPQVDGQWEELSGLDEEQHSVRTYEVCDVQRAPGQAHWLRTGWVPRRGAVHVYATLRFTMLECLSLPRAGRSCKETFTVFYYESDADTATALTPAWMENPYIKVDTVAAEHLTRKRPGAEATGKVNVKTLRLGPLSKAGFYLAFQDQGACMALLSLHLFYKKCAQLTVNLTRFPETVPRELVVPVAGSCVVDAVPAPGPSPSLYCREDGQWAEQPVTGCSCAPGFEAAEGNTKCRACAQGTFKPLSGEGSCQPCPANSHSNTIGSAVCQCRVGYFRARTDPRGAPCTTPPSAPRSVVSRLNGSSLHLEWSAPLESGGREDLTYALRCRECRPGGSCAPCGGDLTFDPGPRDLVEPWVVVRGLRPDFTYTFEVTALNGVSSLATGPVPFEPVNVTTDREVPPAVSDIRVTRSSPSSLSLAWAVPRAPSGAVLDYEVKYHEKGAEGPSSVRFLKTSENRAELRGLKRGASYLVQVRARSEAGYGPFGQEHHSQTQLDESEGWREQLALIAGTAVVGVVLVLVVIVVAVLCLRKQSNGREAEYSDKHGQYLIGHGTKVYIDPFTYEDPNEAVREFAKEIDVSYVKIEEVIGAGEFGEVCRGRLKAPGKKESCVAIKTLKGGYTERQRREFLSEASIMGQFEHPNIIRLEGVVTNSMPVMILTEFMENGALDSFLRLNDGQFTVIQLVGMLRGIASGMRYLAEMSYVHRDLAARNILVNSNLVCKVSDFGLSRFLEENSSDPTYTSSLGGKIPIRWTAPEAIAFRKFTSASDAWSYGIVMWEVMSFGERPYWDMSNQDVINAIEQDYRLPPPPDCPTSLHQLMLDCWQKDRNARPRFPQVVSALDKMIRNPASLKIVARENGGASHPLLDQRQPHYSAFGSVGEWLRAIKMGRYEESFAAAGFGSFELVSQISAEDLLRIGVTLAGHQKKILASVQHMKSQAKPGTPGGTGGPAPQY
In words: Inhibition of EphB4 (unknown origin) transfected in CHO cells using Z'-LYTE TYR-1 peptide as substrate at 10 uM after 2 hrs by FRET assay. It counts as cell-based.

The subject of series [2] is Hs-578T. In words: Cytotoxicity against human Hs578T cells by SRB assay. It counts as functional. In general terms: The SRB assay estimates cell density from bound dye.
Series [3] relates to DU-145. In words: Cytotoxicity against human PRXF DU145 cells after 4 days by propidium iodide staining. The settings on record: DU-145, 96 h.
The target of series [4] is T2, Ephrin type-B receptor 4 (Homo sapiens, UniProt P54760).
T2 sequence (P54760 whole entry): T1 sequence (whole entry)
Description: Inhibition of human myc-tagged full length EphB4 expressed in MEF cells assessed as inhibition of ephrinB2-Fc-induced autophosphorylation incubated for 90 mins prior to ephrinB2-Fc-induction measured after 2 hrs by sandwich ELISA

A short description of series [5]: in vitro. The conditions noted are these: human, Caco-2.
Description: Efflux ratio of apparent permeability from basolateral to apical side to apical to basolateral side in human Caco2 cells
Series [6] is described as follows: Apparent permeability from basolateral to apical side in human Caco2 cells after 2 hrs by LC-MS/MS analysis. The conditions noted are these: Caco-2. It is filed as ADME, cell-based. For orientation: Caco-2 cells form a polarised layer with tight junctions and transporters.
Series [7] concerns SNB-75. In words: Cytotoxicity against human SNB75 cells by SRB assay. It is filed as functional.
In series [8] the test system is K562. In words: Cytotoxicity against human K562 cells by SRB assay. It is filed as functional.
Series [9] in a line: Cytotoxicity against human RXF 393NL cells after 4 days by propidium iodide staining. The settings on record: 96 h.
Series [10] can be described thus: Permeability from basolateral to apical side in human Caco2 cells assessed as compound recovery after 2 hrs by LC-MS/MS analysis. It counts as ADME, cell-based. The conditions noted are these: Caco-2, read-out: permeability.
A short description of series [11]: Permeability from apical to basolateral side in human Caco2 cells assessed as compound recovery after 2 hrs by LC-MS/MS analysis. It counts as ADME, cell-based. The conditions noted are these: Caco-2, read-out: permeability.
For series [12], the target named is Tyrosine-protein kinase ABL1 (Homo sapiens, UniProt P00519).
Tyrosine-protein kinase ABL1, sequence (P00519 whole entry): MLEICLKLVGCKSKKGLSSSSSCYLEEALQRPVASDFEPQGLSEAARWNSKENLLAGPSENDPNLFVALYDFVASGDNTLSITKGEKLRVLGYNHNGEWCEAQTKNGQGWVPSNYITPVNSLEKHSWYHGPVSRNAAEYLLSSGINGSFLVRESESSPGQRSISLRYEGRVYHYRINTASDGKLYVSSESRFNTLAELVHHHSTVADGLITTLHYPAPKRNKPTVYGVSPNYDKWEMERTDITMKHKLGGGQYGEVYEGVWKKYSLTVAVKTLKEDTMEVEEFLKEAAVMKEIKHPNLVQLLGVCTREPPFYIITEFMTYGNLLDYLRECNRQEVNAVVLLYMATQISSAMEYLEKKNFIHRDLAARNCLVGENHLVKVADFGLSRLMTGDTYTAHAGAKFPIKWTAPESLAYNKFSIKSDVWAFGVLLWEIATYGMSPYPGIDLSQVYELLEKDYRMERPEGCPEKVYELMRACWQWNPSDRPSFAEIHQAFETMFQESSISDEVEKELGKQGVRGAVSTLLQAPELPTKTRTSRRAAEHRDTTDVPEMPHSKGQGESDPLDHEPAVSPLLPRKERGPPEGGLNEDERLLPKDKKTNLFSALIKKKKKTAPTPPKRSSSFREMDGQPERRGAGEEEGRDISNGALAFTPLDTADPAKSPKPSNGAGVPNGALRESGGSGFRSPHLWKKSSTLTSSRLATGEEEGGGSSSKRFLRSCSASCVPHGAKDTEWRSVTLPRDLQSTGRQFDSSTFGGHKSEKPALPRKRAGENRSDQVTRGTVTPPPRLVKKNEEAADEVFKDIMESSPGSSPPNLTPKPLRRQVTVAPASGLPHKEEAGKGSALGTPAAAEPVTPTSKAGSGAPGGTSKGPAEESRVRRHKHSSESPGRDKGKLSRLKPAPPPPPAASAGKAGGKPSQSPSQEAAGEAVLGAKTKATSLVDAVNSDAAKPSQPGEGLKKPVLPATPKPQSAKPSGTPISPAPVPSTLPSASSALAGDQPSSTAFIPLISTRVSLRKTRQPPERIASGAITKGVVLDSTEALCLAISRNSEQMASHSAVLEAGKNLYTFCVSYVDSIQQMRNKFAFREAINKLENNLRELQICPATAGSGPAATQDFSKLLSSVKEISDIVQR
Description: Inhibition of Abl (unknown origin) using [gamma-33P]ATP after 30 mins by radiometric assay
A short description of series [13]: Cytotoxicity against human PAXF 1657L cells after 4 days by propidium iodide staining. The settings on record: 96 h.
The nature of series [14]: Cytotoxicity against human GXF251L cells after 4 days by propidium iodide staining. The settings on record: GXF 251L, 96 h.
A short description of series [15]: Cytotoxicity against human CXF 1103L cells after 4 days by propidium iodide staining. The conditions noted are these: 96 h.
Series [16] can be described thus: Apparent permeability from apical to basolateral side in human Caco2 cells after 2 hrs by LC-MS/MS analysis. It counts as ADME, cell-based. The conditions noted are these: Caco-2.
A short description of series [17]: Cytotoxicity against human LXFA 983L cells after 4 days by propidium iodide staining. The conditions noted are these: 96 h.
The target in series [18] is Proto-oncogene tyrosine-protein kinase Src (Homo sapiens, UniProt P12931).
Proto-oncogene tyrosine-protein kinase Src, sequence (P12931 2-536 limits assumed): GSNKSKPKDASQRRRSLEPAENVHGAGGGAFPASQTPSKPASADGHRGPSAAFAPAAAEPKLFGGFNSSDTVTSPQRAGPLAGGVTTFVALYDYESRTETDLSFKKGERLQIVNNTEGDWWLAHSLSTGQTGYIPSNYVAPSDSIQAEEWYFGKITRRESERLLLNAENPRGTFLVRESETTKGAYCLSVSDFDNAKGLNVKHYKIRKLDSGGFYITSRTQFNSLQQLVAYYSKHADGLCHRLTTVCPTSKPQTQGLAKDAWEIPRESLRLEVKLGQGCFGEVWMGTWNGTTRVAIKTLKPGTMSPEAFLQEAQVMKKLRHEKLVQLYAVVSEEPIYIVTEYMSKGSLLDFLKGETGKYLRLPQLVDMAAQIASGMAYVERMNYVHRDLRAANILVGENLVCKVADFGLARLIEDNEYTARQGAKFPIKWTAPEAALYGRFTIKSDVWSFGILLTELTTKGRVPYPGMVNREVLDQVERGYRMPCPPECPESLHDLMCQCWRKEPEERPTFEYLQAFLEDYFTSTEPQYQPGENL
Description: Inhibition of Src (unknown origin) using [gamma-33P]ATP after 30 mins by radiometric assay
The target of series [19] is Tyrosine-protein kinase Lck (Homo sapiens, UniProt P06239). In words: Inhibition of Lck (unknown origin) using [gamma-33P]ATP after 30 mins by radiometric assay.
Tyrosine-protein kinase Lck, sequence (P06239 whole entry): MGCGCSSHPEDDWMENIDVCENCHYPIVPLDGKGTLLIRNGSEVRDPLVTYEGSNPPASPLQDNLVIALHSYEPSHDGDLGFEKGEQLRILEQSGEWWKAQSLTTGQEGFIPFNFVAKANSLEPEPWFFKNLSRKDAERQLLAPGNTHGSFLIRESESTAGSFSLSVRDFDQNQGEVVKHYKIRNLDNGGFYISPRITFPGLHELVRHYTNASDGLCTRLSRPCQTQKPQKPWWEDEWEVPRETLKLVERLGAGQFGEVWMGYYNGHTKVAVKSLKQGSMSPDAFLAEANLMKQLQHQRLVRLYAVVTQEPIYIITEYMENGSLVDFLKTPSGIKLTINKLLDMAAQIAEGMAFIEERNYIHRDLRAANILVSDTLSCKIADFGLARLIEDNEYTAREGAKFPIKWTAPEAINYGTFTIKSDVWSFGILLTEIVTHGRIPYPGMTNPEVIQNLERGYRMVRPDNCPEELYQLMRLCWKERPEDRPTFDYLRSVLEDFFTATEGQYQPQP

Here are results for eleven molecules from ChEMBL document CHEMBL2331203, “Optimization of inhibitors of the tyrosine kinase EphB4. 2. Cellular potency improvement and binding mode validation by X-ray crystallography” (J Med Chem, 2013).

One may read the inhibition as the percentage by which the read-out fell short of the control. Higher therefore signals a strong effect. Turning to `CCCCn1c(-c2ccccc2C(F)(F)F)cn2c3c(=O)[nH]c(=O)n(C)c3nc12`, in series [1], the inhibition was 15%.
By GI50 is commonly meant the concentration giving 50% growth inhibition. The low end stands for more potent growth inhibition, the high end for less potent growth inhibition. By IC50 is commonly meant the concentration needed to halve the response being measured. The low end stands for higher potency, the high end for lower potency. The term efflux ratio denotes a quotient of directional permeabilities that is used to spot active efflux. A word on the Papp B→A: it is how fast a substance crosses the layer from the basolateral side. Usually Papp A→B stands for how fast a substance crosses the layer from the apical side. `COc1ccccc1-n1c(-c2cc(O)ccc2C)cn2c3c(=O)[nH]c(=O)n(C)c3nc12`: the 50% growth inhibitory concentration (GI50) was 0.562 µM in [2], 0.128 µM in series [7] and 0.309 µM in [8]. In addition, the IC50 in series [3] was determined as 2.7 µM; in [4], 0.13 µM; in series [9], 1.76 µM; in [12], 0.00092 µM; in series [13] it was 2.01 µM; in series [14], 20.2 µM. Besides, the half-inhibitory concentration (IC50) in series [15] was found to be 32.6 µM; in [17] it was 9.16 µM; in series [18], 0.00114 µM; in [19] it was 0.0013 µM. Moreover, the efflux ratio in series [5] amounted to 7.3. For the same molecule, the apparent permeability from basolateral to apical (Papp B→A) at 2 h in [6] amounted to 23 ×10⁻⁶ cm/s. Further, the values for the recovery at 2 h in series [10] and in series [11] were 74% and 51%, respectively. The apical-to-basolateral permeability (Papp A→B) at 2 h in series [16] worked out at 3.13 ×10⁻⁶ cm/s.
Turning to `CCCCn1c(-c2ccc(F)cc2C)cn2c3c(=O)[nH]c(=O)n(C)c3nc12`, the concentration for half-maximal inhibition (IC50) is 9.59 µM in series [3]; 8.69 µM in series [9]; 9.46 µM in series [13]; 14.9 µM in [14]; 4.04 µM in series [15]; 6.02 µM in series [17]. Besides, in [19], the IC50 came out at 0.617 µM.
The molecule `CCCCn1c(-c2cccc(Cl)c2)cn2c3c(=O)[nH]c(=O)n(C)c3nc12` showed an inhibition in series [1] of 22%.
As for `Cc1nc(Nc2ncc(C(=O)Nc3c(C)cccc3Cl)s2)cc(N2CCN(CCO)CC2)n1` [DASATINIB], the IC50 turned out to be 0.0623 µM in [3]; 0.0217 µM in series [9]; 0.121 µM in [13]; 2.25 µM in series [14]; 4.36 µM in [15]; 0.0565 µM in [17].
Turning to `COc1ccccc1-n1c(-c2ccccc2)cn2c3c(=O)[nH]c(=O)n(C)c3nc12`, in [6], the apparent permeability from basolateral to apical (Papp B→A) at 2 h was 35.8 ×10⁻⁶ cm/s. In addition, the recovery at 2 h worked out at 76% in series [10] and 71% in series [11]. The Papp A→B at 2 h in series [16] is 32.3 ×10⁻⁶ cm/s.
In [1], `COc1ccccc1-n1c(-c2cccc(Cl)c2)cn2c3c(=O)[nH]c(=O)n(C)c3nc12` returned an inhibition of 12%.
Take `CCCCCn1c(-c2ccccc2C)cn2c3c(=O)[nH]c(=O)n(C)c3nc12`: the IC50 in [3] is 6.97 µM; in [9], 5.58 µM; in series [13], 5.88 µM; in series [14], 4.98 µM; in [15] it was 2.57 µM; in [17] it was 2.72 µM.
In turn, `CCCCn1c(-c2c(C)cccc2C)cn2c3c(=O)[nH]c(=O)n(C)c3nc12` yielded an inhibition in series [1] of 49%.
As for `CCCCn1c(-c2ccccc2Cl)cn2c3c(=O)[nH]c(=O)n(C)c3nc12`, the IC50 in [3] is 3.18 µM; in series [9], 2.93 µM; in series [13], 4.94 µM; in series [14], 18.2 µM; in series [15], 1.14 µM; in series [17], 1.62 µM.
Take `CCCCn1c(-c2ccccc2)cn2c3c(=O)[nH]c(=O)n(C)c3nc12`: the apparent permeability from basolateral to apical (Papp B→A) at 2 h in [6] came out at 42.5 ×10⁻⁶ cm/s. Moreover, the figures for the recovery at 2 h in series [10] and in series [11] were 78% and 69%, respectively. For the same molecule, the Papp A→B at 2 h in series [16] amounted to 42.5 ×10⁻⁶ cm/s.
